A word on the IC50: it is the point on the concentration scale where inhibition reaches its midpoint. For orientation: viability means a read-out of living cells in per cent, often relative to untreated cells. One may read the solubility as how much of the substance goes into solution per volume. A word on the Kd: it is the concentration at which binding is half-saturated.

Values after ≈ are worked out from the molar mass of the structure shown. Read-outs that look alike come from different tables or passages of the source.

Data set [1] relates to A549 cells. The experiment in a line: MTT cytotoxicity / synergy assay, 72 h, A549. The note with it: Homo sapiens, A549, 72 h, read-out: IC50 Value in Specific Cell Line, A549.
Method: (§1) The synergistic effects of drug combinations were studied in various cancer cell lines, including MCF-7 (human breast cancer), A549 (human lung cancer), U-87 MG (human malignant glioma), HepG2 (human liver cancer), and HUH7 (human liver cancer). HMEC-1, an immortalized human microvascular endothelial cell line, was used as a model for normal cells. All cell lines were purchased from ATCC (Rockville, MD, USA).
(§2) The cancer cell lines were cultured in Dulbecco’s Modified Eagle’s Medium (DMEM; Sigma-Aldrich) supplemented with 10% FBS and 1% penicillin/streptomycin mixture (10,000 U/mL penicillin and 10 mg/mL streptomycin; Sigma-Aldrich) at 37 °C in a humidified atmosphere with 5% CO2.
(§3) For the MTT assay, exponentially growing cells were seeded into 96-well plates at a density of 5 × 10³ cells per well. After 24 h of incubation, the medium was replaced with 100 µL of fresh medium containing the tested compounds. After 72 h of treatment, cell viability was assessed using the MTT assay as described earlier. […] IC50 values were calculated using GraphPad Prism 9 software (GraphPad Software).
The test system of a further data set is HMEC-1 cells. As to the kind of experiment: MTT cytotoxicity / synergy assay, 72 h, HMEC-1. The note with it: read-out: IC50 Value in Specific Cell Line, HMEC-1; for CC50: Homo sapiens, HMEC-1, 72 h.
For another data set, the system named is HuH7 cells. As to the kind of experiment: MTT cytotoxicity / synergy assay, 72 h, HuH7. The note with it: Homo sapiens; for IC50: Huh-7, 72 h, read-out: IC50 Value in Specific Cell Line, HuH7.
The subject of a further data set is U-87MG cells. As to the kind of experiment: MTT cytotoxicity / synergy assay, 72 h, U-87MG. It is filed as cell-based. The note with it: Homo sapiens, n.d. = IC50 not achieved within concentrations tested, read-out: IC50 Value in Specific Cell Line, U-87MG.
Data set [2] concerns HepG2 cells. As to the kind of experiment: MTT cytotoxicity / synergy assay, 72 h, HepG2.
Method: as §1, §2, §3
In data set [3] the test system is A549 cells. The note with it: human.
Method: as §1, §2, §3
The subject of data set [4] is MCF-7 cells. The experiment in a line: MTT cytotoxicity / synergy assay, 72 h, MCF-7. The class given is cell-based, human. The note with it: 72 h; for decrease in cell viability caused by 0.05% Tween-80: with vs. without 0.05% Tween-80; for IC50: MTT, n.d. = IC50 not achieved within concentrations tested, read-out: IC50 Value in Specific Cell Line, MCF-7. Here is the method: Stock solutions of the tested compounds were first prepared in DMSO at 200-fold the intended final concentration. […] The cells were treated for 72 h under the same conditions.
Following treatment, 25 μL of MTT solution was added to each well, and the plates were incubated for 2 h at 37 °C. […] IC₅₀ values, indicating the concentration required to reduce cell viability by 50% compared to untreated controls (set as 100% viability), were calculated using GraphPad Prism 9 software (GraphPad Software, San Diego, CA, USA). All data from this preliminary cytotoxic assay were analyzed by ANOVA followed by Tukey’s post hoc test for multiple comparisons, with significance set at p < 0.05. A similar statistical approach was used for the rest of the experimental work presented in this study.

The subject of data set [5] is HepG2 cells. The note with it: human.
Method: as §1, §2, §3
The nature of data set [6]: Hemolysis (Drabkin's method). The class given is cell-based. The note with it: human, washed erythrocyte (RBC) suspension, 40% hematocrit, pH 7.4, single drug, RT, dark, CTRL− 11.6%. Here is the method: Blood samples were collected from healthy human volunteers into Vacutainer tubes containing 3% sodium citrate (BD Biosciences, Warsaw, Poland). Whole blood was centrifuged at 1500 rpm (RCF = 214 g) for 10 min in a CompactStar CS4 centrifuge (VWR) at RT to separate erythrocytes, which were washed twice with PBS (pH 7.4) and centrifuged at 1500 rpm for 5 min at RT after each wash. Hematocrit was measured to adjust the final RBC concentration in PBS (pH 7.4) to 40%. The drugs were then dissolved in the RBC suspension at the final concentrations outlined in Figure 8. RBCs incubated in dH2O were used as a positive control (100% hemolysis), while RBCs in PBS were used as the negative control. A blank sample of PBS without RBCs or drugs provided a baseline for absorbance measurements. Experimental samples, along with positive, negative, and vehicle (0.5% DMSO) controls, were incubated for 4 h at RT in the dark. After incubation, the samples were centrifuged at 1500 rpm for 5 min at RT, and the supernatant was collected to measure hemoglobin release using Drabkin’s method. Absorbance was measured at 540 nm with a Jenway 6305 UV/Vis spectrophotometer (Bibby Scientific, Staffordshire, UK). This study was conducted in triplicate. The percentage of hemolysis was calculated by comparing the absorbance at 540 nm (OD540) of the test sample with that of the positive control using the following formula:(2) % Hemolysis=OD540Test−OD540(Blank)/OD540Total Lysis−OD540(Blank)×100%

Data set [7] concerns 4T1 breast cancer and B16F10 melanoma xenografts. The note with it: 4T1, B16F10 xenografts, MMTV-PyMT; cited from earlier work.
The nature of data set [8]: DLS particle size measurements. The class given is physicochemical. The note with it: 100–500 µM CHLO, […] BSA, 0.05% Tween-80. As for the experimental part: Dynamic light scattering (DLS) measurements were performed using a Zetasizer Nano ZS instrument (Malvern Instruments, Malvern, UK). Samples of 2 mL were placed in disposable PMMA cuvettes (cat. #634-0677; VWR, Gdańsk, Poland) and measured at 37 °C. To ensure accuracy, each sample was measured at least three times. The data were processed using DTS v6.2 software (Malvern Instruments).

The subject of data set [9] is A549, HepG2, MCF-7, and U-87MG. The experiment in a line: Doxorubicin accumulation assay, sensitive cell lines. The class given is cell-based, human. As for the experimental part: Cells were seeded at a density of 2 × 10^4 cells per well in black 96-well plates as described in Section 3.6.
Another data set has as its system HSA. Further details: method as in Figure S2 [39–71]. The note with it: ref Figure S2 [39–71]; cited from earlier work.
Details of data set [10]: method as in Figure S2 [39–71]. The note with it: ref Figure S2 [39–71]; cited from earlier work.
Data set [11] has as its system MCF-7 cells. The note with it: read-out: IC50 value, MCF-7; cited from earlier work.
Data set [12] in a line: Analysis of drug stability in PBS. The note with it: equimolar mixtures with DOXO, PBS (pH 7.4), 37 °C, 7 to 14 days. It is filed as physicochemical. As for the experimental part: The samples were prepared in PBS (pH 7.4) containing 0.05% (v/v) Tween-80 and 0.5% (v/v) DMSO. […] The samples were placed into 2 mL HPLC vials, sealed, and incubated at 37 °C for 7 to 14 days. Every 24 h, 20 µL aliquots were taken for HPLC analysis.

The next data set deals with BSA. More on the design: method as in PMID 29772022. The note with it: read-out: Kd (binding to BSA); cited from earlier work.
The test system of data set [13] is mammary tumors. The note with it: 20 days; GLIB 0.06 mg/kg/day orally, tamoxifen 1 mg/kg/day s.c.; cited from earlier work.
The next data set concerns MRP1. The note with it: cited from earlier work.
For data set [14], the system named is mammary tumors. The note with it: 20 days; GLIB 0.06 mg/kg/day orally, tamoxifen 1 mg/kg/day s.c.; cited from earlier work. This is another data set of the same source.
Setting [15] is: Homo sapiens, HepG2, 72 h, read-out: IC50 Value in Specific Cell Line, HepG2.

Method for HMEC-1 cells: as §1, §2, §3
Method for HuH7 cells: as §1, §2, §3
Method for U-87MG cells: as §1, §2, §3

Consider `COc1cccc2c1C(=O)c1c(O)c3c(c(O)c1C2=O)C[C@@](O)(C(=O)CO)C[C@@H]3O[C@H]1C[C@H](N)[C@H](O)[C@H](C)O1` [DOXO, Doxorubicin], for which the half-maximal inhibitory concentration (IC50) with A549 cells [1] turned out to be 0.27 ± 0.02 µM; in the data set with HuH7 cells, 0.28 ± 0.02 µM; with U-87MG cells, 0.57 ± 0.11 µM; with HepG2 cells [2] (setting [15]), 0.3 ± 0.01 µM; with MCF-7 cells [4] (Homo sapiens, MCF7), 0.46 ± 0.06 µM. Besides, the CC50 in the data set with HMEC-1 cells was 0.08 ± 0.01 µM. Also, the viability at 0.65 µM in the data set on HuH7 cells (Huh-7, read-out: HuH7 cell viability) stood at 53.5 ± 0.4%. The same molecule gave an A549 cell viability in the data set with A549 cells [3] of 0.643 ± 0.002. Further, the “decrease in cell viability caused by 0.05% Tween-80” value with MCF-7 cells [4] worked out at 12.6%. The same molecule showed a HepG2 cell viability with HepG2 cells [5] of 0.695 ± 0.003. Besides, in data set [6], the hemolysis at 4 h was 32.3%.

Turning to `Cc1cnc(C(=O)NCCc2ccc(S(=O)(=O)NC(=O)NC3CCCCC3)cc2)cn1` [GLIP, Glipizide], the CC50 in the data set with HMEC-1 cells came out at 454.1 ± 1.8 µM. The half-inhibitory concentration (IC50) with HuH7 cells was 421.9 ± 0.5 µM; in the data set on HepG2 cells [2] (setting [15]), 229 ± 10.9 µM; in the data set on MCF-7 cells [4] (Homo sapiens, MCF7) it was 339 ± 18.8 µM. Moreover, the “effect on tumor growth and metastasis” value in data set [7] was “inhibited tumor growth and metastasis”.

For Tween-80, the “concentration above which survival of MCF-7 cells is significantly reduced” value in the data set with MCF-7 cells [4] is recorded as “above 0.05 % (v/v)”.

Take `CCCNC(=O)NS(=O)(=O)c1ccc(Cl)cc1` [CHLO, Chlorpropamide]: the CC50 in the data set with HMEC-1 cells came to 218.2 ± 1.6 µM. Further, the aggregate formation result in data set [8] was “do not form aggregates”. The “increase of DOXO levels” value in data set [9] is “up to 2.3 times”. The IC50 is 480 ± 54.1 µM in the data set with HepG2 cells [2] (Homo sapiens, HepG2, 72 h, read-out: IC50 Value in Specific Cell Line, HepG2, MTT, 72 h, n.d. = IC50 not achieved within concentrations tested) and above 500 µM in the data set on MCF-7 cells [4] (Homo sapiens, MCF7, 72 h). Moreover, in the data set with MCF-7 cells [4], the “decrease in cell viability caused by 0.05% Tween-80” value stood at 3.2%. In addition, in the data set with HSA, the “nKa (global affinity constant, HSA)” value was 62000 M⁻¹. For the same molecule, the hemolysis at 4 h in data set [6] lay within 11.2 to 11.9%. Besides, the solubility in data set [10] was 1000 µM (≈ 277 µg/mL).

Take `Cc1ccc(S(=O)(=O)NC(=O)NN2CC3CCCC3C2)cc1` (stereo not shown) [GLIC, Gliclazide]: the half-maximal inhibitory concentration (IC50) in the data set with MCF-7 cells [11] was 216 µM; with MCF-7 cells [4] (Homo sapiens, MCF7, 72 h), 87.9 µM. Besides, the CC50 in the data set with HMEC-1 cells was 447.7 ± 2.3 µM. For the same molecule, in [12], the stability entry is “slow but noticeable degradation”. Further, the equilibrium dissociation constant (Kd) on BSA is 155 µM.

Turning to `COc1ccc(Cl)cc1C(=O)NCCc1ccc(S(=O)(=O)NC(=O)NC2CCCCC2)cc1` [GLIB, Glibenclamide], the concentration for half-maximal inhibition (IC50) in the data set with MCF-7 cells [11] is 325 µM; with HuH7 cells, 493.2 ± 1.3 µM. Besides, in the data set on HMEC-1 cells, the CC50 stood at 248 ± 3.6 µM. Also, in the data set with mammary tumors [13], the “tumors responded (regressed or remained stable)” value is on record as 64%. Also, the “concentration increasing intracellular accumulation of calcein” value in the data set with MRP1 was at least 3.12 µM. Also, the tumors responded result in the data set with mammary tumors [14] is on record as “no response”. Also, the Kd on BSA was 0.67 µM.

For the molecule `CCCCNC(=O)NS(=O)(=O)c1ccc(N)cc1` [CARB, Carbutamide], the IC50 in the data set with HepG2 cells [2] (setting [15]) was 70.7 ± 1.4 µM.

Regarding `COc1ccc2c(c1)C(=O)N(CCc1ccc(S(=O)(=O)NC(=O)NC3CCCCC3)cc1)C(=O)C2(C)C` [GLIQ, Gliquidone], the IC50 in the data set on A549 cells [1] was 259 ± 16.3 µM; in the data set on HuH7 cells, 400.7 ± 2.2 µM; in the data set with U-87MG cells it was 57.1 ± 1.8 µM; in the data set with HepG2 cells [2] (setting [15]), 39.6 ± 2.6 µM; in the data set on MCF-7 cells [4] (Homo sapiens, MCF7), 68.8 ± 2.5 µM. Further, the CC50 in the data set on HMEC-1 cells came out at 157 ± 2.2 µM. Moreover, the “increase of DOXO levels” value in data set [9] was “up to 2.3 times”. The molecule further showed a hemolysis at 4 h in data set [6] of 11.2 to 11.9%.

As to `COCCCNC(=O)NS(=O)(=O)c1ccc(C)cc1` [MESU, N-(3-methoxy-propyl)-N’-(toluene-4-sulfoyl)-urea], the IC50 was determined as 78.3 ± 2.4 µM in the data set with HMEC-1 cells (MTT, 72 h, n.d. = IC50 not achieved within concentrations tested); 63.1 ± 0.3 µM with HepG2 cells [2] (read-out: IC50 Value in Specific Cell Line, HepG2, MTT, 72 h, n.d. = IC50 not achieved within concentrations tested); 495.9 ± 0.8 µM in the data set with MCF-7 cells [4].

With `Cc1ccc(S(=O)(=O)NC(=O)NN2CCCCCC2)cc1` [TOLA, Tolazamide], in the data set with HMEC-1 cells, the CC50 was determined as 468.6 ± 0.5 µM. In addition, in the data set with HepG2 cells [2] (setting [15]), the IC50 turned out to be 470 ± 12.4 µM. The stability entry in data set [12] is “slow but noticeable degradation”.

Turning to `CC/C(=C(\c1ccccc1)c1ccc(OCCN(C)C)cc1)c1ccccc1` [tamoxifen], the “tumors responded (regressed or remained stable)” value in the data set with mammary tumors [13] is 57%. For the same molecule, the tumors responded with mammary tumors [14] is given as 75%.

`CCCCNC(=O)NS(=O)(=O)c1ccc(C)cc1` [TOLB, Tolbutamide]: in the data set on HMEC-1 cells, the CC50 came out at 88.2 ± 4.1 µM. The IC50 was 232 ± 21.6 µM with HepG2 cells [2] (setting [15]) and 461 ± 53.9 µM in the data set with MCF-7 cells [4] (Homo sapiens, MCF7).
